Results reported in patent publication US8373021B2, “Improving disease resistance in plants by introducing transcription factor gene” (priority 2005, dated 2013).

Columns and labels:
Format in all cases: in vivo
[1] = test system: blast disease fungus (race 007); experiment: Blast disease assay after BTH treatment in non-transformed and OsWRKY45 RNAi rice plants; conditions: 0.5 mM BTH sprayed at 4-leaf stage, inoculated 2 days later, counted after 7 days
Excerpt: FIG. 8 is a graph depicting the results of inducing the blast disease resistance by BTH in rice plants in which OsWRKY45 expression is suppressed. A blast disease fungus was inoculated into non-transformed rice plants, either treated or not treated with BTH, and BTH-treated rice plants in which OsWRKY45 expression was suppressed. After seven days, the number of blotches on the 10-cm long central part of leaf blades was counted in each plant.
In order to examine the effect of suppression of OsWRKY45 expression on the blast disease resistance induced in rice by BTH treatment, non-transformed rice plants and transformed lines of rice plant in which the suppression of OsWRKY45 expression by RNAi had been confirmed were sprayed with 0.5 mM BTH at the 4-leaf stage, and then inoculated with a compatible blast disease fungus (race 007) 2 days later. After 7 days, the blotches present on the 10-cm long central part of leaf blades were counted in each plant body.

OsWRKY45 = experiment: Induction of OsWRKY45 gene expression by BTH treatment (Northern blot analysis); conditions: rice seedlings 3.5-leaf stage, 0.5 mM BTH, leaves
Description: FIG. 1 depicts the induction of OsWRKY45 gene expression by BTH treatment. Rice plants at the 3.5-leaf stage were treated with BTH, and RNAs were prepared from leaves over time and subjected to Northern analysis. For comparison, two types of PR genes (PR1b and PBZ1) were also examined for induction of expression.
In order to detect a transcription factor gene inducibly expressed by BTH, rice seedlings (3.5-leaf stage) on day 10 after seeding were treated with 0.5 mM BTH (in 0.01% Tween 20/0.5% acetone), and the RNAs prepared over time (12, 24, 72, and 120 hours after the treatment) from BTH-treated and mock-treated rice leaves were subjected to DNA microarray analysis with the rice 22K array (Agilent). As a result, a WRKY transcription factor gene (OsWRKY45, AK066255; SEQ ID NOs: 1 and 2) that is inducibly expressed by BTH treatment was found.

[2] = test system: PR1b and OsWRKY45 expression; experiment: Induction of PR1b and OsWRKY45 expression by BTH in NH1 RNAi rice plants (RT-PCR); conditions: rice plants in which NH1 was suppressed by RNAi
Excerpt: FIG. 10 is composed of photographs depicting OsWRKY45 expression in rice plants in which the expression of NH1, a rice NPR1 homolog, is suppressed by RNAi. Two lines (#7 and #14) in which the NH1 expression was suppressed by RNAi were BTH-treated or mock-treated to examine the induction of expression of PR1b and OsWRKY45 by RT-PCR.
Recently, it was reported that in Arabidopsis thaliana, the resistance to a filamentous fungus, Erysiphe cichoracearum, was enhanced by the introduction of WRKY70, a WRKY transcription factor (Li, J., Brader, G., Kariola, T., and Palva, E. T. (2006). WRKY70 modulates the selection of signaling pathways in plant defense. Plant J. 46, 477-491). […] From these findings, WRKY70 is thought to be a transcription factor downstream of NPR1. Thus, for comparison of functions between WRKY70 and OsWRKY45, the induction of PR1b and OsWRKY45 expressions by BTH was examined in rice plants in which NH1, a rice NPR1 homolog (Chern, M., Fitzgerald, H. A., Canlas, P. E., Navarre, D. A., and Ronald, P. C. (2005). Overexpression of a rice NPR1 homolog leads to constitutive activation of defense response and hypersensitivity to light. Mol. Plant-Microbe Int. 18, 511-520) was suppressed by RNAi.

With c1ccc2snnc2c1 [BTH, benzothiadiazole] the “blotches on the 10-cm long central part of leaf blades” value ([1]; non-transformed rice) was “Almost no blotches were observed”, the “blotches on the 10-cm long central part of leaf blades” value ([1]; rice with OsWRKY45 expression suppressed by RNAi) was “nearly equal number of blotches to that in non-treated, non-transformed rice plants” and the “time after BTH treatment within which OsWRKY45 expression was induced” value (OsWRKY45) was no more than 3 h. For the same compound, the “induction of OsWRKY45 expression by BTH” value [2] was “not affected at all” and the “induction of PR1b expression by BTH” value [2] was “completely lost”.
